Assay results: article doi:10.1101/2023.11.24.568596v1 (biorxiv, 2023)

Key:
Conditions in all cases: binder
[1] = molecular target: T1, NQO2A (Homo sapiens, UniProt P16083)
T1 sequence (P16083 1-231): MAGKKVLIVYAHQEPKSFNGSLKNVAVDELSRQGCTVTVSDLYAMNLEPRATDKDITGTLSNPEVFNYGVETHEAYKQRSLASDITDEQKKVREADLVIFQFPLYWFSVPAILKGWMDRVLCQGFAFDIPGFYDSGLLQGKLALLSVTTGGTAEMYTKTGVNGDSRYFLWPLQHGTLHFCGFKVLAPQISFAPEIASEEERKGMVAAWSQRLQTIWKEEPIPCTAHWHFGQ

[2] = molecular target: SRC (Homo sapiens, UniProt P12931)
[3] = molecular target: T2, Erk7 (Homo sapiens, UniProt Q8TD08)
T2 sequence (Q8TD08 1-544): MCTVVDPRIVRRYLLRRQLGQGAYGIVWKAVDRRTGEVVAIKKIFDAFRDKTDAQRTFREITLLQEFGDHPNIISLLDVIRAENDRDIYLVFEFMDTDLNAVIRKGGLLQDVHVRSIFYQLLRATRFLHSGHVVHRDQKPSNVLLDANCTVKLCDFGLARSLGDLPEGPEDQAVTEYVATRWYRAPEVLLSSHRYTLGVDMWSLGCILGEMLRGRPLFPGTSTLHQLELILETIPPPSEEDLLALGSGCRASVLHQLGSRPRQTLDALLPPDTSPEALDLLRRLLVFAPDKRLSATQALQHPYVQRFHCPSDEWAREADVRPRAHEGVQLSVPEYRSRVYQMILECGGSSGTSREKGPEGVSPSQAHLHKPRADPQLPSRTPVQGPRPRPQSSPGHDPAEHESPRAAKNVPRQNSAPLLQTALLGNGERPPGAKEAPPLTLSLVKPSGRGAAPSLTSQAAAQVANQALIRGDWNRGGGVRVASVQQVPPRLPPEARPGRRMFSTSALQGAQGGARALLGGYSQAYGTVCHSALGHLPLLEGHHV

[4] = molecular target: T3, PHKG2 (Homo sapiens, UniProt P15735)
T3 sequence (P15735 1-406): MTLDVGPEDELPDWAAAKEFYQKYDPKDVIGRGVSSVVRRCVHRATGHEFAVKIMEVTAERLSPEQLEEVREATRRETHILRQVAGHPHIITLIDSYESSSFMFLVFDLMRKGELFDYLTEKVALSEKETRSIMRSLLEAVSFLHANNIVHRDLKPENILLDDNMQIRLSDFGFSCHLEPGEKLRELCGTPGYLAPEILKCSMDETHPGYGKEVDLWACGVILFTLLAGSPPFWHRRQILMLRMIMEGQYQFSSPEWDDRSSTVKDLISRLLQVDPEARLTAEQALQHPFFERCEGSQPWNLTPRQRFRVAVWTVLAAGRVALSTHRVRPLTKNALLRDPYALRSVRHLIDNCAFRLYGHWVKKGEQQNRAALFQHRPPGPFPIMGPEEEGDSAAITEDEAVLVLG

[5] = molecular target: STLK3 (Homo sapiens, UniProt Q9UEW8)
[6] = molecular target: SLK (Homo sapiens, UniProt Q9H2G2)
Chain of SLK (Q9H2G2 whole entry): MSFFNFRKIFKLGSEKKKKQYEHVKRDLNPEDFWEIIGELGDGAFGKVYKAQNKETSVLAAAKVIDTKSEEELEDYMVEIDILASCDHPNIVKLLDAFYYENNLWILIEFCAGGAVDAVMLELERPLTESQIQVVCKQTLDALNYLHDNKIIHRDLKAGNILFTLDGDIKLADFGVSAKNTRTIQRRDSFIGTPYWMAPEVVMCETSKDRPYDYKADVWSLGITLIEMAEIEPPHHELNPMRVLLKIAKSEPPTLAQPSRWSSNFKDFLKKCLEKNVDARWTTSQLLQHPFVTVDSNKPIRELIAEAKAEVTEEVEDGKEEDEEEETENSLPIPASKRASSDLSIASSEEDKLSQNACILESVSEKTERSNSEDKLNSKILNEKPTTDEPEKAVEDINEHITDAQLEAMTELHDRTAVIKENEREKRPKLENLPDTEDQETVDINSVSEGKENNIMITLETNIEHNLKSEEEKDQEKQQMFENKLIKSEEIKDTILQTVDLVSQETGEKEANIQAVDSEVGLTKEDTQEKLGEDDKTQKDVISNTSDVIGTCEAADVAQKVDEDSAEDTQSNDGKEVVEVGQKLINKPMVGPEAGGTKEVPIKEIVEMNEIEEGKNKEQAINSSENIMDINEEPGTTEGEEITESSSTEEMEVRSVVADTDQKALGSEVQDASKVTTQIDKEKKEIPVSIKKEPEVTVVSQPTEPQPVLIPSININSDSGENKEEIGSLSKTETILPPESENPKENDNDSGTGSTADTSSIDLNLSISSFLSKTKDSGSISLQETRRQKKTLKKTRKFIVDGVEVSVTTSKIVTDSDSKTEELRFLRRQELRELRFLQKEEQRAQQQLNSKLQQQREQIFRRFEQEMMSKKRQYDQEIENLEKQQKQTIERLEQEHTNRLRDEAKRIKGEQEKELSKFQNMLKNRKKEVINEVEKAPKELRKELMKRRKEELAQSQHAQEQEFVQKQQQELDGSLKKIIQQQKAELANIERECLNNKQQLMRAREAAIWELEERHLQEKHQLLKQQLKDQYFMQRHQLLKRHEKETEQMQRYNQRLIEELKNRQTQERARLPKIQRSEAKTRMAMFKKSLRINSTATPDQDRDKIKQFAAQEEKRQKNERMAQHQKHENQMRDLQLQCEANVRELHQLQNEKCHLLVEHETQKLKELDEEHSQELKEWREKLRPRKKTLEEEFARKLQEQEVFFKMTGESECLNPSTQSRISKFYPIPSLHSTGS

[7] = molecular target: CaMK2d (Homo sapiens, UniProt Q13557)
Chain of CaMK2d (Q13557 whole entry): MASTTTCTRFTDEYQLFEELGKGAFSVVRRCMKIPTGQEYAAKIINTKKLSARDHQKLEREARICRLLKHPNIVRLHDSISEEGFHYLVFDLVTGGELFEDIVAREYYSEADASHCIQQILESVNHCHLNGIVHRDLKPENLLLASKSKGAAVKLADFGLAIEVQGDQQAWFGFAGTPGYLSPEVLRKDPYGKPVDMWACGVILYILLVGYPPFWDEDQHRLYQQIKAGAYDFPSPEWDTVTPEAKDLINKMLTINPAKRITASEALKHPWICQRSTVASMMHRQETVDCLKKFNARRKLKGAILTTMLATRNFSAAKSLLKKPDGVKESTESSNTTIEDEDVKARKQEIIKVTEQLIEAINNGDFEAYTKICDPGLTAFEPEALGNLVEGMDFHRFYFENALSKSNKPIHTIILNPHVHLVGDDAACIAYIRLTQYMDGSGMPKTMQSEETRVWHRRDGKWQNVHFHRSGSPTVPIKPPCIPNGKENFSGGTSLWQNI

[8] = molecular target: NEK7 (Homo sapiens, UniProt Q8TDX7)
Chain of NEK7 (Q8TDX7 whole entry): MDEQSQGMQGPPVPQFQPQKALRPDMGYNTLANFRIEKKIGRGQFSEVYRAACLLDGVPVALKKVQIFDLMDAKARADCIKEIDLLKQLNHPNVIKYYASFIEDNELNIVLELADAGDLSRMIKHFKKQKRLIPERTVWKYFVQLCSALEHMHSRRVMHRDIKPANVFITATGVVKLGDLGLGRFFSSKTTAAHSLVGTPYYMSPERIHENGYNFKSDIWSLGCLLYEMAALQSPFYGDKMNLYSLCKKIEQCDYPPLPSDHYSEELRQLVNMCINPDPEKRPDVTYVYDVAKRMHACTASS

[9] = molecular target: T4, TLK1 (Homo sapiens, UniProt Q9UKI8)
T4 sequence (Q9UKI8 1-766): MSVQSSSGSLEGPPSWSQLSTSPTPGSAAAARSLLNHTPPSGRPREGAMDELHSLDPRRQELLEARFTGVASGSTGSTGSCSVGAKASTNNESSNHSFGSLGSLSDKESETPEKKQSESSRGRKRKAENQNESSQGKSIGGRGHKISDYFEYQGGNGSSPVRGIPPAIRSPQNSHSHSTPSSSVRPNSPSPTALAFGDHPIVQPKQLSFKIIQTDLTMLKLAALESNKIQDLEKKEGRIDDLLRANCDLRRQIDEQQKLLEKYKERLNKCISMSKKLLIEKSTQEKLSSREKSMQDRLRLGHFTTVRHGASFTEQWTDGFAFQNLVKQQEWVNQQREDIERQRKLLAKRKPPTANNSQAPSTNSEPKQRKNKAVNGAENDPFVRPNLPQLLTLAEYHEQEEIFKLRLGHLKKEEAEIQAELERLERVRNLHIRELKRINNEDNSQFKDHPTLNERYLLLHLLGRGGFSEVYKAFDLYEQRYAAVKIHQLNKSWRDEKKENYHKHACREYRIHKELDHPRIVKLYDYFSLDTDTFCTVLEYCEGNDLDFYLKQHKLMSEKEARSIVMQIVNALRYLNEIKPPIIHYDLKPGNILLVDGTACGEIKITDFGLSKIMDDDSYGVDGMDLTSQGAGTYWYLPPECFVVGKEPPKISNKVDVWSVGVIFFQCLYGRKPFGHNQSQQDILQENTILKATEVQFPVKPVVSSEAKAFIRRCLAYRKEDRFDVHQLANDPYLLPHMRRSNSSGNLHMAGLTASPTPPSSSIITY

Chain of SRC (P12931 whole entry): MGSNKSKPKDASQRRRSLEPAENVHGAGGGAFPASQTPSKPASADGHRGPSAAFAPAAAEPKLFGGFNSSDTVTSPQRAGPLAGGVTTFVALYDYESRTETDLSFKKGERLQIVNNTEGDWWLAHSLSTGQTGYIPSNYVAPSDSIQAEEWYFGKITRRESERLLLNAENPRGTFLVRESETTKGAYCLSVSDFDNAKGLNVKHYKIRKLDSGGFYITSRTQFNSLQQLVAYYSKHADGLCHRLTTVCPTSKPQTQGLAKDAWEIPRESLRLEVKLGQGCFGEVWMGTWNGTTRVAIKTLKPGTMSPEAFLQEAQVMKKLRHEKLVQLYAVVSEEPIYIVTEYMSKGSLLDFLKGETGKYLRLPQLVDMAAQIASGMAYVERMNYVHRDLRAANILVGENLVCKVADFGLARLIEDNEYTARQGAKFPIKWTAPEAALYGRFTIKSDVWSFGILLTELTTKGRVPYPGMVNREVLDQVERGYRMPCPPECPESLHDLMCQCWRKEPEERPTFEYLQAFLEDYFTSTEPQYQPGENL

Cc1cccc(-c2ccc(-c3cc4cnc(Nc5ccc(F)c(CO)c5)nc4n(CCCCN)c3=O)c(Cl)c2)n1 [compound 33, 8-(4-Aminobutyl)-6-(2-chloro-4-(6-methylpyridin-2-yl)phenyl)-2-((4-fluoro-3-(hydroxymethyl)phenyl)amino)pyrido[2,3-d]pyrimidin-7(8H)-one]
dTm 33 [1]: 0.9 °C | dTm 33 [2]: 4.7 °C | dTm 33 [3]: 1.6 °C | dTm 33 [4]: 6.2 °C | dTm 33 [5]: 16.8 °C | dTm 33 [6]: 8.0 °C | dTm 33 [7]: -0.2 °C | dTm 33 [8]: -1.4 °C | dTm 33 [9]: -0.8 °C

COc1ccc(O)c(Nc2ncc3cc(-c4ccc(-c5cccc(C)n5)cc4Cl)c(=O)n(CCCCN)c3n2)c1 [compound 34, 8-(4-Aminobutyl)-6-(2-chloro-4-(6-methylpyridin-2-yl)phenyl)-2-((2-hydroxy-5-methoxy-phenyl)amino)pyrido[2,3-d]pyrimidin-7(8H)-one]
dTm 34 [1]: -1.3 °C | dTm 34 [2]: 3.1 °C | dTm 34 [3]: -0.4 °C | dTm 34 [4]: 3.5 °C | dTm 34 [5]: 11.0 °C | dTm 34 [6]: 4.7 °C | dTm 34 [7]: -0.2 °C | dTm 34 [8]: -1.0 °C | dTm 34 [9]: -1.1 °C

COc1cc(N2CCOCC2)ccc1Nc1ncc2cc(-c3ccc(-c4cccc(C)n4)cc3Cl)c(=O)n(CCCCN)c2n1 [compound 35, 8-(4-Aminobutyl)-6-(2-chloro-4-(6-methylpyridin-2-yl)phenyl)-2-((2-methoxy-4-morpholino-phenyl)amino)pyrido[2,3-d]pyrimidin-7(8H)-one]
dTm 35 [1]: -2.4 °C | dTm 35 [2]: 4.4 °C | dTm 35 [3]: 1.1 °C | dTm 35 [4]: 8.8 °C | dTm 35 [5]: 13.4 °C | dTm 35 [6]: 5.1 °C | dTm 35 [7]: -0.9 °C | dTm 35 [8]: -2.4 °C | dTm 35 [9]: -2.5 °C

COc1cc(N2CCN(C)CC2)ccc1Nc1ncc2cc(-c3ccc(-c4cccc(C)n4)cc3Cl)c(=O)n(CCCCN)c2n1 [compound 36, 8-(4-Aminobutyl)-6-(2-chloro-4-(6-methylpyridin-2-yl)phenyl)-2-((2-methoxy-4-(4-methylpiperazin-1-yl)phenyl)amino)pyrido[2,3-d]pyrimidin-7(8H)-one]
dTm 36 [1]: -1.0 °C | dTm 36 [2]: 4.1 °C | dTm 36 [3]: -0.5 °C | dTm 36 [4]: 8.0 °C | dTm 36 [5]: 9.3 °C | dTm 36 [6]: 4.2 °C | dTm 36 [7]: -0.2 °C | dTm 36 [8]: -1.4 °C | dTm 36 [9]: -1.9 °C
